Assays:
[1] = test system: Parent Chili (Tr1) (RNA, aptamer) GGCUAGCUGGAGGGGCGCCAGUUCGCUGGUGGUUGGGUGCGGUCGGCUAGCC; assay: X-ray crystallography; details: K+ 50 mM, Mg2+ 5 mM, 10 mM HEPES pH 8.0, then MES pH 5.4-5.8, spermine, PEG 400
[2] = test system: Parent Chili (Tr1) (RNA, aptamer) GGCUAGCUGGAGGGGCGCCAGUUCGCUGGUGGUUGGGUGCGGUCGGCUAGCC; assay: fluorescence activation; details: 40 mM HEPES pH 7.5
[3] = test system: c7G15 Chili with r4CI at 34 (R3 ligated to R4) (RNA, aptamer, 7-deazaguanine (c7G) at 15; 4-cyanoindole ribonucleoside (r4CI) replaces U34; 3'-phosphate on printed 3' fragment) GGCUAGCUGGAGGGGCGCCAGUUCGCUGGUGGUUGGGUGCGGUCGGCUAGCC; assay: FRET from r4CI to ligand; details: K+ 125 mM, Mg2+ 5 mM; 40 mM HEPES pH 7.5
[4] = test system: c7G15 Chili with r4CI at 46 (R3 ligated to R5) (RNA, aptamer, 7-deazaguanine (c7G) at 15; 4-cyanoindole ribonucleoside (r4CI) replaces G46; 3'-phosphate on printed 3' fragment) GGCUAGCUGGAGGGGCGCCAGUUCGCUGGUGGUUGGGUGCGGUCGGCUAGCC; assay: FRET from r4CI to ligand; details: K+ 125 mM, Mg2+ 5 mM; 40 mM HEPES pH 7.5
[5] = test system: Chili G15A (Tr12) (RNA, aptamer) GGCUAGCUGGAGGGACGCCAGUUCGCUGGUGGUUGGGUGCGGUCGGCUAGCC; assay: absorbance and fluorescence; details: K+ 125 mM, Mg2+ 5 mM; 40 mM HEPES pH 7.5; 5 µM RNA and ligand
[6] = test system: Chili C40U (Tr13) (RNA, aptamer) GGCUAGCUGGAGGGGCGCCAGUUCGCUGGUGGUUGGGUGUGGUCGGCUAGCC; assay: absorbance and fluorescence; details: K+ 125 mM, Mg2+ 5 mM; 40 mM HEPES pH 7.5; 5 µM RNA and ligand; 30% reduced fluorescence
[7] = test system: Chili G15A/C40U (Tr14) (RNA, aptamer) GGCUAGCUGGAGGGACGCCAGUUCGCUGGUGGUUGGGUGUGGUCGGCUAGCC; assay: absorbance and fluorescence; details: K+ 125 mM, Mg2+ 5 mM; 40 mM HEPES pH 7.5; 5 µM RNA and ligand; binding site only partially restored
[8] = test system: c7G15-modified Chili (R3 ligated to R2) (RNA, aptamer, 7-deazaguanine (c7G) at 15; 3'-phosphate on printed 3' fragment) GGCUAGCUGGAGGGGCGCCAGUUCGCUGGUGGUUGGGUGCGGUCGGCUAGCC; assay: absorbance and fluorescence; details: K+ 125 mM, Mg2+ 5 mM; 40 mM HEPES pH 7.5; 10 µM RNA and ligand (absorbance)
[9] = test system: Chili P1-1 (Tr4) (RNA, aptamer) GGCAGCUGGAGGGGCGCCAGUUCGCUGGUGGUUGGGUGCGGUCGGCUGCC; assay: fluorescence activation; details: K+ 125 mM, Mg2+ 5 mM; 40 mM HEPES pH 7.5; 1 µM RNA and ligand; >80% of parent
[10] = test system: Chili P1-2 (Tr5) (RNA, aptamer) GGAGCUGGAGGGGCGCCAGUUCGCUGGUGGUUGGGUGCGGUCGGCUCC; assay: fluorescence activation; details: K+ 125 mM, Mg2+ 5 mM; 40 mM HEPES pH 7.5; 1 µM RNA and ligand; >80% of parent
[11] = test system: Chili P1-3 (Tr6) (RNA, aptamer) GGACUGGAGGGGCGCCAGUUCGCUGGUGGUUGGGUGCGGUCGGUCC; assay: fluorescence activation; details: K+ 125 mM, Mg2+ 5 mM; 40 mM HEPES pH 7.5; 1 µM RNA and ligand; >80% of parent
[12] = test system: Chili P1C (Tr2) (RNA, aptamer) GGCUAGCCGGAGGGGCGCCAGUUCGCUGGUGGUUGGGUGCGGUCGGCUAGCC; assay: fluorescence activation; details: K+ 125 mM, Mg2+ 5 mM; 40 mM HEPES pH 7.5; 1 µM RNA and ligand; slower maturation than parent
[13] = test system: Chili P1A (Tr3) (RNA, aptamer) GGCUAGCUGGAGGGGCGCCAGUUCGCUGGUGGUUGGGUGCGGUCAGCUAGCC; assay: fluorescence activation; details: K+ 125 mM, Mg2+ 5 mM; 40 mM HEPES pH 7.5; 1 µM RNA and ligand; slower maturation than parent
[14] = test system: circularly permuted Chili aptamer (Tr10) (RNA, aptamer) GGGUGCGGUCAGUCCGGAAGGACUGGAGGGGCGCCAGUUCGCUGGUGGUU; assay: fluorescence activation; details: K+ 125 mM, Mg2+ 5 mM; 40 mM HEPES pH 7.5; 75% of P1A fluorescence enhancement

SMILES | binding ([1]; 2.25 Å) | binding ([2]; Na+ (replaces K+, 125 mM), 25% residual intensity against K+) | binding ([2]; Tl+ (replaces K+, 125 mM), intensity preserved against K+) | binding [3] | binding [4] | binding [5] | binding [6] | binding [7] | binding [8] | binding ([1]; 2.95 Å) | binding [9] | binding [10] | binding [11] | binding [12] | binding [13] | binding [14]
COc1cc(/C=C2N=C(/C=N/O)N(c3ccc([N+](C)(C)C)cc3)C\2=O)cc(OC)c1O | yes | yes | yes | no | no | no | yes | yes | no | – | – | – | – | – | – | –
COc1cc(/C=C2\N=C(C)N(c3ccc([N+](C)(C)C)cc3)C2=O)cc(OC)c1O | – | – | – | – | – | – | – | – | – | yes | yes | yes | yes | yes | yes | yes
